Source: USRE37781E1, “Substituted cyclic carbonyls and derivatives thereof useful as retroviral protease inhibitors” (DuPont Pharmaceuticals Company, priority 1991, dated 2002)
pKi: −log10 of the molar value. Where two headings read alike, the source gives them in different places.

What was measured:
[1] = molecular target: single-chain tethered dimer of HIV protease (Human immunodeficiency virus 1, UniProt P04585); test: biochemical; format: biochemical; design: fused on or other part: A second copy of the same protease unit is joined to the first by a short peptide tether, giving one polypeptide
HIV-1 (RF) in MT-2 cells = test: microbe, parasite or virus in culture; format: cell-based
Method in brief: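 HIV-1 laboratory strains (RF, MN, IIIB) grown in H9 cells in RPMI 1640 with 5% FCS; infections in MT-2 cells. Viral RNA quantified by hybridization with biotinylated gag/pol capture probes on streptavidin plates and alkaline phosphatase-conjugated reporter probes; BH10 gag-pol in vitro transcripts serve as RNA standards.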

[2] = read-out: HPLC K1, Table 2d, class symbols
[3] = Human immunodeficiency virus 1, MT2, 48 h, Table 2d, class symbols, read-out: IC90
[4] = Table 2d, HIV protease inhibition, HPLC method, read-out: HPLC K1
[5] = read-out: HPLC K1, Table 2d, HIV protease inhibition, HPLC method
[6] = Human immunodeficiency virus 1, MT2, 48 h, Table 2d, HIV RNA assay, read-out: IC90

Structure (SMILES) | pKi [1, 2] | IC90 (HIV-1 (RF) in MT-2 cells; [3]) | also measured
NC(=O)COc1cccc(CN2C(=O)N(Cc3cccc(OCC(N)=O)c3)C(Cc3ccccc3)C(O)C(O)C2Cc2ccccc2)c1 (centres unmarked) [10H] |  |  | pKi ([1]; Table 2d, class symbols, read-out: HPLC K1): > 8.00; IC90 (HIV-1 (RF) in MT-2 cells; Table 2d, class symbols): +++ (+++=<10 μg/mL)
O=C1N(Cc2cccc(OCCO)c2)C(Cc2ccccc2)C(O)C(O)C(Cc2ccccc2)N1Cc1cccc(OCCO)c1 (centres unmarked) [10Y] | > 8.00 | < 10 µg/mL | 
O=C1N(Cc2cccnc2)C(Cc2ccccc2)C(O)C(O)C(Cc2ccccc2)N1Cc1cccc(CO)c1 (centres unmarked) [15WS] | > 8.00 | < 10 µg/mL | 
CNC(=O)NCCCCCN1C(=O)N(CCCCCNC(=O)NC)C(Cc2ccccc2)C(O)C(O)C1Cc1ccccc1 (centres unmarked) [15ES] |  |  | pKi [1, 4]: 6.00 to 8.00; IC90 (HIV-1 (RF) in MT-2 cells; Table 2d, HIV RNA assay): ++/+ (The ++/+ is used in the cases where an IC90 was determined to be >50 μg/mL)
O=C1N(CCCCCO)C(Cc2ccccc2)C(O)C(O)C(Cc2ccccc2)N1CC1CC1 (centres unmarked) [Example 15VU] | > 8.00 | < 10 µg/mL | 
COCCCCCN1C(=O)N(CCCCCO)C(Cc2ccccc2)C(O)C(O)C1Cc1ccccc1 (centres unmarked) [Example 15VW] | > 8.00 | < 10 µg/mL | 
CCC(=O)CN1C(=O)N(CC(=O)CC)C(Cc2ccccc2)C(O)C(O)C1Cc1ccccc1 (centres unmarked) [Example 15VO] | 6.00 to 8.00 | > 50 µg/mL | 
O=C1NC(Cc2ccccc2)C(O)C(O)C(Cc2ccccc2)N1CC1CC1CO (centres unmarked) [Example 12N] | 6.00 to 8.00 | > 100 µg/mL | 
O=C1N(Cc2ccc3[nH]nnc3c2)C(Cc2ccccc2)C(O)C(O)C(Cc2ccccc2)N1Cc1ccc2[nH]nnc2c1 (centres unmarked) [15CT] |  |  | pKi [1, 4]: > 8.00; IC90 (HIV-1 (RF) in MT-2 cells; Table 2d, HIV RNA assay): +++ (+++=<10 μg/mL)
O=C1Nc2ccc(CN3C(=O)N(Cc4ccc5c(c4)C(=NO)C(=O)N5)C(Cc4ccccc4)C(O)C(O)C3Cc3ccccc3)cc2C1=NO (centres unmarked) [15DB] |  |  | pKi [1, 4]: > 8.00; IC90 (HIV-1 (RF) in MT-2 cells; Table 2d, HIV RNA assay): +++ (+++=<10 μg/mL)
O=C1N(Cc2cccc(C=NCCO)c2)C(Cc2ccccc2)C(O)C(O)C(Cc2ccccc2)N1Cc1cccc(C=NCCO)c1 (centres unmarked) [Example 9J] | 6.00 to 8.00 | < 10 µg/mL | 
O=C(NCCCCCN1C(=O)N(CCCCCNC(=O)c2cnccn2)C(Cc2ccccc2)C(O)C(O)C1Cc1ccccc1)c1cnccn1 (centres unmarked) [15FF] |  |  | pKi ([1]; HIV protease inhibition, HPLC method, Table 2d, read-out: HPLC K1): < 6.00; IC90 (HIV-1 (RF) in MT-2 cells; HIV RNA assay, HIV-1 infected MT-2 cells, Table 2d): ++/+ (The ++/+ is used in the cases where an IC90 was determined to be >50 μg/mL)
O=C1N(Cc2ccc3[nH]nnc3c2)C(Cc2ccccc2)C(O)C(O)C(Cc2ccccc2)N1CC1CC1 (centres unmarked) [15DP] |  |  | pKi [1, 4]: > 8.00; IC90 (HIV-1 (RF) in MT-2 cells; Table 2d, HIV RNA assay): +++ (+++=<10 μg/mL)
COc1cccc(CC2C(O)C(O)C(Cc3cccc(OC)c3)N(Cc3ccc(CO)cc3)C(=O)N2Cc2ccc(CO)cc2)c1 (centres unmarked) [20AT] |  |  | pKi ([1]; Table 2i, read-out: HPLC Ki): > 8.00; IC90 (HIV-1 (RF) in MT-2 cells; Table 2i): +++ (+++=<10 μg/mL)
NC(=NO)c1cccc(CN2C(=O)N(Cc3cccc(-c4cc[nH]n4)c3)C(Cc3ccccc3)C(O)C(O)C2Cc2ccccc2)c1 (centres unmarked) [Example 15BW] |  |  | pKi [1, 5]: > 8.00; IC90 (HIV-1 (RF) in MT-2 cells; [6]): < 10 µg/mL
CCNC(=O)c1cccc(CN2C(=O)N(Cc3cccc(CO)c3)C(Cc3ccccc3)C(O)C(O)C2Cc2ccccc2)c1 (centres unmarked) [15WK] | > 8.00 | < 10 µg/mL | 
O=C(NCCN1CCOCC1)c1cccc(CN2C(=O)N(Cc3cccc(C(=O)NCCN4CCOCC4)c3)C(Cc3ccccc3)C(O)C(O)C2Cc2ccccc2)c1 (centres unmarked) [15XU] |  |  | pKi [1, 4]: > 8.00; IC90 (HIV-1 (RF) in MT-2 cells; Table 2d, HIV RNA assay): +++ (+++=<10 μg/mL)
O=S1(=O)N(Cc2cccc(O)c2)C(Cc2ccccc2)C(O)C(O)C(Cc2ccccc2)N1Cc1cccc(O)c1 (centres unmarked) [Example 23D] |  |  | pKi ([1]; Table 2m, read-out: HPLC Ki): > 8.00; IC90 (HIV-1 (RF) in MT-2 cells; Table 2m): +++ (+++=<10 μg/mL)
CCN(CC)C(=O)c1cccc(CN2C(=O)N(Cc3cccc(C(=O)OC)c3)C(Cc3ccccc3)C(O)C(O)C2Cc2ccccc2)c1 (centres unmarked) [11T] | > 8.00 | < 10 µg/mL | 
O=C1N(Cc2cccc(CO)c2)C(Cc2ccccc2)C(O)C(O)C(Cc2ccccc2)N1Cc1cccc(-c2cc[nH]n2)c1 (centres unmarked) [Example 15BQ] |  |  | pKi [1, 5]: > 8.00; IC90 (HIV-1 (RF) in MT-2 cells; [6]): < 10 µg/mL
O=C1NC(Cc2ccccc2)C(O)C(O)C(Cc2ccccc2)N1CCCCCO (centres unmarked) [Example 15VG] | > 8.00 | < 10 µg/mL | 
C=CCCCCN1C(=O)N(CCCCC=C)C(Cc2ccccc2)C(O)C(O)C1Cc1ccccc1 (centres unmarked) [Example 13D] | > 8.00 | < 10 µg/mL | 
O=C1CCC(CN2C(=O)NC(Cc3ccccc3)C(O)C(O)C2Cc2ccccc2)CC1 (centres unmarked) [Example 15VA] | 6.00 to 8.00 | > 50 µg/mL | 
O=P1(Oc2ccccc2)N(Cc2cccc(CO)c2)[C@H](Cc2ccccc2)[C@H](O)[C@@H](O)[C@@H](Cc2ccccc2)N1Cc1cccc(CO)c1 (some centres unmarked) [28J] |  |  | pKi ([1]; Table 2r, read-out: Ki HPLC): 6.00 to 8.00; IC90 (HIV-1 (RF) in MT-2 cells; Table 2r): ++ (++=10 to 100 μg/mL)
NCCCCCCN1C(=O)N(CCCCCCN)C(Cc2ccccc2)C(O)C(O)C1Cc1ccccc1 (centres unmarked) [Example 12A] | < 6.00 | > 100 µg/mL | 
